Measured values: patent publication US10544143B2, “4-azaindole compounds” (BRISTOL-MYERS SQUIBB COMPANY, priority 2017, dated 2020)
Read-outs that look alike come from different tables or passages of the source.

Tests used:
human TLR8 = human TLR8 (Homo sapiens (Human), UniProt Q9NR97); assay: TLR8 inhibition reporter assay (HEK-Blue SEAP); details: R848 15.9 μM;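 further: SEAP driven by IFN-β minimal promoter carrying NF-κB and AP-1 sites, compounds dosed 0.05 nM to 50 µM for 22 h, inhibition scaled between agonist-plus-DMSO and reference-inhibitor wells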
Chain of human TLR8 (Q9NR97 27-1041): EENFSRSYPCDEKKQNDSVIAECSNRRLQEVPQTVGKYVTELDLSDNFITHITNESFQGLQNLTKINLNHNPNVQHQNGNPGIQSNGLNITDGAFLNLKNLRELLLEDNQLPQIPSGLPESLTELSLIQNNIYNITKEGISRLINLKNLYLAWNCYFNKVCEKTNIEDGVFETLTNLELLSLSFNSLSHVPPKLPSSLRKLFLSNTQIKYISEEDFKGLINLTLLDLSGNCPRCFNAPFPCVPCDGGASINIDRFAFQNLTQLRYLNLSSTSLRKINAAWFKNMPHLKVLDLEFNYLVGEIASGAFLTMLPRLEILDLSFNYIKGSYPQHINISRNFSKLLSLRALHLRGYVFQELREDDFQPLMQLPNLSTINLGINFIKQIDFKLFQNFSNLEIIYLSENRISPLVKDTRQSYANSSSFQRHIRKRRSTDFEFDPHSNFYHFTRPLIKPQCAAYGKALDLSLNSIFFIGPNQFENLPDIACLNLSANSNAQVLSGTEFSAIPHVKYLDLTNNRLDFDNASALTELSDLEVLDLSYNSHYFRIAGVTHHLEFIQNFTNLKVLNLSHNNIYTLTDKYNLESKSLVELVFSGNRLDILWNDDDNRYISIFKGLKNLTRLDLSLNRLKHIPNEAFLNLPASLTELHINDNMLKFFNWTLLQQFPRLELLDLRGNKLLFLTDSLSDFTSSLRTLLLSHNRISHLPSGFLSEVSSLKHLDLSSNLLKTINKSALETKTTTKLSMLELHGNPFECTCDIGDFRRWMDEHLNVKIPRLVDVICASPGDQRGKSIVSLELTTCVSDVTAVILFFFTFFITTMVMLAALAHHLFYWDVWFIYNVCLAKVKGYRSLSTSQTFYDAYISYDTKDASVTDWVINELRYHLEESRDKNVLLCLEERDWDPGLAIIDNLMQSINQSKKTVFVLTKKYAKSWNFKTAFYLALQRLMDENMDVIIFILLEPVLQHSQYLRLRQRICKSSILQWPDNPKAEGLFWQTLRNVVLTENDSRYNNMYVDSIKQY

human TLR9 = human TLR9 (Homo sapiens (Human), UniProt Q9NR96); assay: TLR9 inhibition reporter assay (HEK-Blue SEAP); details: ODN2006 5 nM;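 further: SEAP driven by an IFN-β minimal promoter with NF-κB and AP-1 sites, read after 22 h, compounds dosed 0.05 nM–50 µM, inhibition scaled between agonist plus DMSO and reference-inhibitor wells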
Chain of human TLR9 (Q9NR96 26-1032): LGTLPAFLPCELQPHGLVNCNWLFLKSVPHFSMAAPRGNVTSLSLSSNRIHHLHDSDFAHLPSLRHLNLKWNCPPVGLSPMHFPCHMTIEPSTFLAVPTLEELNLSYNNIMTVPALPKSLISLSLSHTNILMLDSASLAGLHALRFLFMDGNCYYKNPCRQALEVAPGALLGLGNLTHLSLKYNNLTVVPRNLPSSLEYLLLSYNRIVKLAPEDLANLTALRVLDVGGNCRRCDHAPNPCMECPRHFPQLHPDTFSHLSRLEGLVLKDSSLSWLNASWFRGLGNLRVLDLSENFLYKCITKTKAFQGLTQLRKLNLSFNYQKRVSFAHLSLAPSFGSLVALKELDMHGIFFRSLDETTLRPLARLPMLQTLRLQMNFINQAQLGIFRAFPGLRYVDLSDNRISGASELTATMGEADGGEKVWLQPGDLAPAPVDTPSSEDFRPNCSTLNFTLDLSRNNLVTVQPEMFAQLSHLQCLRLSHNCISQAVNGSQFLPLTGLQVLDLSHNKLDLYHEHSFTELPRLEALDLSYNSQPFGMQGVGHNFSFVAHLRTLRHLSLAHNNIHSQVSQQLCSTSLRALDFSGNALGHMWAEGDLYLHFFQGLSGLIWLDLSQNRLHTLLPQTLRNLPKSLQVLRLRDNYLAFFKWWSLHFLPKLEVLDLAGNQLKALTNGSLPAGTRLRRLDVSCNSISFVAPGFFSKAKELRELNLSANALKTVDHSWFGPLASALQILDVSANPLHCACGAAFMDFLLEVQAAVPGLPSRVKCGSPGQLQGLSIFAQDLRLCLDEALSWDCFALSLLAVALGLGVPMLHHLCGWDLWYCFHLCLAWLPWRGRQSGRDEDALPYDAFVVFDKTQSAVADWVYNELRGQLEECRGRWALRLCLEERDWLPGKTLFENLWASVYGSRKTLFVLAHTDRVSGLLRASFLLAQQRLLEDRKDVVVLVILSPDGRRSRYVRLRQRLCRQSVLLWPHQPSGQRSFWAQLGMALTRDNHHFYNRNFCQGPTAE

human TLR7 = human TLR7 (Homo sapiens (Human), UniProt Q9NYK1); assay: TLR7 inhibition reporter assay (HEK-Blue SEAP); format: cell-based; details: HEK-Blue human TLR7 cells, gardiquimod 7.5 μM
Chain of human TLR7 (Q9NYK1 27-1049): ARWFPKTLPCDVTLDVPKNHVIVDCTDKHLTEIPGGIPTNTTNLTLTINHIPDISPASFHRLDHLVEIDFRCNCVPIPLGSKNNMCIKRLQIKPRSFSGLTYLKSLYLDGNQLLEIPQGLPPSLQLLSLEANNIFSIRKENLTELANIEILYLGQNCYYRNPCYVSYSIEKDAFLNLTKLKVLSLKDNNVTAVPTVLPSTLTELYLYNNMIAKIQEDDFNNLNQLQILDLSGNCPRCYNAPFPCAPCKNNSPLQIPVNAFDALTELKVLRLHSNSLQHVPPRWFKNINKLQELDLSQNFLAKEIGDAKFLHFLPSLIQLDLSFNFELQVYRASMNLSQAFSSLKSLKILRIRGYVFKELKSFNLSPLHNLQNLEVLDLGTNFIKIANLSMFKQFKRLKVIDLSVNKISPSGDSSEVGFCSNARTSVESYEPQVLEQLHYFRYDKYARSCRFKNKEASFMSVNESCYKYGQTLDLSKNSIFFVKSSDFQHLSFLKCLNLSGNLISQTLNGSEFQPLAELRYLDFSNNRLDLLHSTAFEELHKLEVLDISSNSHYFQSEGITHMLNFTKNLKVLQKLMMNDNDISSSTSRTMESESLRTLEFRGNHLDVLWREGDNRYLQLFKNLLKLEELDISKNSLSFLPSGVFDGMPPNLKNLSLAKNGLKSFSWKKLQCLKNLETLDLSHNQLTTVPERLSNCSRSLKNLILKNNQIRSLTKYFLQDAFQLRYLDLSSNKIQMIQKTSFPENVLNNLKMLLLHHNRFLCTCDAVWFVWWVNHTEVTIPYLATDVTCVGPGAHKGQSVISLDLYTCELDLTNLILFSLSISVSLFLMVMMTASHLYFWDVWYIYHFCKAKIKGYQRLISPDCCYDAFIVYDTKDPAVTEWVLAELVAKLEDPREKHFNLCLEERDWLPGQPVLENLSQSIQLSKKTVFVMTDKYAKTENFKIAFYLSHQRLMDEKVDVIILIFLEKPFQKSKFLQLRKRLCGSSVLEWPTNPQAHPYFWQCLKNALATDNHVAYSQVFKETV

[1] = read-out: TLR8 IC50, HEK-Blue human TLR8 cells
[2] = read-out: TLR9 IC50, HEK-Blue human TLR9 cells

Compound | IC50 (human TLR8; [1]) [nM] | IC50 (human TLR9; [2]) [nM] | IC50 (human TLR7) [nM] | IC50 (human TLR8; TLR8 IC50, HEK-Blue human TLR8 cells) [nM] | IC50 (human TLR9; TLR9 IC50, HEK-Blue human TLR9 cells) [nM]
Cc1c(-c2[nH]c3ccc(N4C[C@H](C)N(C(=O)CN(C)C(C)C)C[C@H]4C)nc3c2C(C)C)cn2ncnc2c1C [Example 938] | 4.9 | 8560 | 2.6 | – | –
Cc1c(-c2[nH]c3ccc(N4CCN(C(=O)CN(C)C(C)(C)C)[C@H](C)C4)nc3c2C(C)C)cn2ncnc2c1C [Example 944] | 4.9 | 17100 | 3.1 | – | –
Cc1c(-c2[nH]c3ccc(N4CCN(C(=O)CC(C)(C)N5CC6(COC6)C5)CC4)nc3c2C(C)C)cn2ncnc2c1C [Example 945] | 0.94 | 7850 | 4.8 | – | –
Cc1c(-c2[nH]c3ccc(N4CCN(C(=O)CN5CCC6(CCOC6)C5)CC4)nc3c2C(C)C)cn2ncnc2c1C (stereo not drawn) [Example 947] | 0.66 | 8770 | 1.9 | – | –
Cc1c(-c2[nH]c3ccc(N4CCN(C(=O)CN5CCC(C)(O)C5)CC4)nc3c2C(C)C)cn2ncnc2c1C (stereo not drawn) [Example 948] | 1.4 | 12800 | 2.8 | – | –
Cc1c(-c2[nH]c3ccc(N4CCN(C(=O)CN(C)CC(C)(C)O)CC4)nc3c2C(C)C)cn2ncnc2c1C [Example 949] | 1.6 | 31000 | 2.6 | – | –
Cc1c(-c2[nH]c3ccc(N4CCN(C(=O)CN5CCOCC5(C)C)CC4)nc3c2C(C)C)cn2ncnc2c1C [Example 950] | 4.9 | 36100 | 7.2 | – | –
Cc1c(-c2[nH]c3ccc(N4CCN(C(=O)CN5CC6(C5)CS(=O)(=O)C6)CC4)nc3c2C(C)C)cn2ncnc2c1C [Example 951] | 1.5 | > 50000 | 6.5 | – | –
[2H]C([2H])([2H])NCC(=O)N1CCN(c2ccc3[nH]c(-c4cn5ncnc5c(C)c4C)c(C(C)C)c3n2)CC1 [Example 952] | – | – | 1.8 | 0.7 | 7860

Compounds with a lower IC50 (human TLR7), results first:

IC50 (human TLR8; [1]) [nM] | IC50 (human TLR9; [2]) [nM] | IC50 (human TLR7) [nM] | IC50 (human TLR8; TLR8 IC50, HEK-Blue human TLR8 cells) [nM] | IC50 (human TLR9; TLR9 IC50, HEK-Blue human TLR9 cells) [nM] | Compound
2.9 | 5610 | 0.48 | – | – | Cc1c(-c2[nH]c3ccc(N4C[C@H](C)N(C(=O)CN5CC6(COC6)C5)C[C@H]4C)nc3c2C(C)C)cn2ncnc2c1C [Example 935]
3.5 | 4640 | 0.56 | – | – | Cc1c(-c2[nH]c3ccc(N4C[C@H](C)N(C(=O)CN5CCCC5)C[C@H]4C)nc3c2C(C)C)cn2ncnc2c1C [Example 936]
14 | 14200 | 0.52 | – | – | CCN(C)CC(=O)N1C[C@@H](C)N(c2ccc3[nH]c(-c4cn5ncnc5c(C)c4C)c(C(C)C)c3n2)C[C@@H]1C [Example 937]
9.8 | 11900 | 1.5 | – | – | Cc1c(-c2[nH]c3ccc(N4C[C@H](C)N(C(=O)CN(C)C(C)(C)C)C[C@H]4C)nc3c2C(C)C)cn2ncnc2c1C [Example 939]
0.66 | 8340 | 1.7 | – | – | Cc1c(-c2[nH]c3ccc(N4CCN(C(=O)CN5CC6(COC6)C5)[C@H](C)C4)nc3c2C(C)C)cn2ncnc2c1C [Example 940]
0.66 | 7200 | 0.66 | – | – | Cc1c(-c2[nH]c3ccc(N4CCN(C(=O)CN5CCCC5)[C@H](C)C4)nc3c2C(C)C)cn2ncnc2c1C [Example 941]
3.4 | 12000 | 0.5 | – | – | CCN(C)CC(=O)N1CCN(c2ccc3[nH]c(-c4cn5ncnc5c(C)c4N)c(C(C)C)c3n2)C[C@H]1C [Example 942]
1.1 | 10000 | 1.1 | – | – | Cc1c(-c2[nH]c3ccc(N4CCN(C(=O)CN(C)C(C)C)[C@H](C)C4)nc3c2C(C)C)cn2ncnc2c1C [Example 943]
1.8 | 8950 | 1.4 | – | – | Cc1c(-c2[nH]c3ccc(N4CCN(C(=O)CN5CC(C)(O)C5)CC4)nc3c2C(C)C)cn2ncnc2c1C [Example 946]
5.3 | 12000 | 0.92 | – | – | Cc1c(-c2[nH]c3ccc(N4CCN(C(=O)CN(CCO)C(C)(C)C)C[C@H]4C)nc3c2C(C)C)cn2ncnc2c1C [Example 953]
